Test results: patent US20110039762A1, “TARGETED ANTIMICROBIAL MOIETIES” (C3 JIAN, INC., priority 2009, published 2011)
Entries after “also recorded” stand apart in the source; their conditions may differ. Square brackets hold non-standard residues; d marks the D form. Ends that are not written are not given here. dOrn = NCCC[C@@H](N)C(=O)O

Tested on: microorganisms (e.g., bacteria, yeasts, fungi)
Assay: Targeting peptide binding to target microorganisms (Table 3)
Conditions: microorganism the targeting peptide binds; binding in aqueous buffers varied by peptide solubility, preferably 1x PBS

| Substance | Target(s) |
| --- | --- |
| 1T-106 (DALRRSRSQGRRHR; Peptide with targeting and/or antimicrobial activity) [Peptide 1T-106] | S. gordonii; also recorded: S. mitis; also recorded: S. mutans; also recorded: S. oralis; also recorded: S. salivarious |
| 1T-242 (KQVQNTTLIICGTVLLGILFKSYLKSQKSV; Peptide with targeting and/or antimicrobial activity) [Peptide 1T-242] | F. nucleatum; also recorded: S. sanguinis |
| 1T-266 (RAGTWLVVDEIR; Peptide with targeting and/or antimicrobial activity) [Peptide 1T-266] | S. sanguinis |
| 1T-47 (VIKISVPGQVQMLIP; Peptide with targeting and/or antimicrobial activity) [Peptide 1T-47] | S. mutans; also recorded: S. epidermidis; also recorded: P. aeruginosa |
| 1T-119 (SPATQKAPTRAQPSRAPVQDCGDGRPTAAPDDVERLSPR; Peptide with targeting and/or antimicrobial activity) [Peptide 1T-119] | S. gordonii; also recorded: S. mitis; also recorded: S. mutans; also recorded: S. oralis |
| 1T-218 (KLIFAALGLVFLLIGLRDSRSK; Peptide with targeting and/or antimicrobial activity) [Peptide 1T-218] | F. nucleatum; also recorded: S. sanguinis |
| 1T-125 (DAITGGNPPLSDTDGLRP; Peptide with targeting and/or antimicrobial activity) [Peptide 1T-125] | S. epidermidis; also recorded: S. gordonii; also recorded: S. mutans; also recorded: S. oralis |
| 1T-75 (GVARGLQLGIKTRTQWGAATGAA; Peptide with targeting and/or antimicrobial activity) [Peptide 1T-75] | S. pneumoniae |
| 1T-222 (RIEASLISAIMFSMFNAIVKFLQK; Peptide with targeting and/or antimicrobial activity) [Peptide 1T-222] | F. nucleatum; also recorded: S. sanguinis |
| 1T-141 (KKFIILLFILVQGLIFSATKTLSDIIAL; Peptide with targeting and/or antimicrobial activity) [Peptide 1T-141] | F. nucleatum; also recorded: P. gingivalis; also recorded: S. epidermidis; also recorded: S. gordonii; also recorded: S. mitis; also recorded: S. mutans; also recorded: S. oralis; also recorded: S. sanguinis |
| CHA0 (D[dOrn]KTAA[dOrn]K; not fully specified (bridges)) | P. fluorescens |
| 1T-31 (NATGTDIGEVTLTLGRFS; Peptide with targeting and/or antimicrobial activity) [Peptide 1T-31] | S. mutans; also recorded: P. aeruginosa |
| 1T-126 (QGLARPVLRRIPL; Peptide with targeting and/or antimicrobial activity) [Peptide 1T-126] | S. gordonii; also recorded: S. mitis; also recorded: S. mutans |
| TT-311 (AIFDAMHNL; Peptide with targeting and/or antimicrobial activity) | S. mutans; also recorded: S. sobrinus |
| PF-038 (MAYKDEGKETKFAVKGYKD; Peptide with targeting and/or antimicrobial activity) | M. luteus |
| 1T-17 (NNAIVYIS; Peptide with targeting and/or antimicrobial activity) [Peptide 1T-17] | S. mutans |
| 1T-215 (VCFKDISVFLSPFRGQEVLFCGKAKHSLIYVIGT; Peptide with targeting and/or antimicrobial activity) [Peptide 1T-215] | S. sanguinis |
| 1T-249 (VFSVLKHTTWPTRKQSWHDFISILEYSAFFALVIFIFDKLLTLGLAELLKRF; Peptide with targeting and/or antimicrobial activity) [Peptide 1T-249] | F. nucleatum; also recorded: S. sanguinis |
| 1T-288 (RWVGGEPSADIYLSAKDTKT; Peptide with targeting and/or antimicrobial activity) [Peptide 1T-288] | F. nucleatum; also recorded: S. gordonii; also recorded: S. salivarious; also recorded: S. sanguinis |
| 1T-219 (RNINVSATFITEKSLV; Peptide with targeting and/or antimicrobial activity) [Peptide 1T-219] | S. sanguinis |
| 1T-250 (LVQGDTILIENHVGTPVKDDGKDCLIIREADVLAVVND; Peptide with targeting and/or antimicrobial activity) [Peptide 1T-250] | S. mitis; also recorded: S. mutans; also recorded: S. oralis |

Same assay, conditions: microorganism(s) the targeting peptide binds; binding in aqueous buffers depending on peptide solubility, preferably 1x PBS

| Substance | Target(s) |
| --- | --- |
| PF-213 (MTTGVDFIIEKV; Peptide with targeting and/or antimicrobial activity) | S. epidermidis |
| MKKLVAALAVIVILTGCVYDPVNYDKIHDQEFQDHLRQNG [PF-252] | S. mutans |
| PF-267 (SDDKRTD; Peptide with targeting and/or antimicrobial activity) | M. luteus |
| PF-206 (KLRSASKKSLQEKSCGIMPEKPAG; Peptide with targeting and/or antimicrobial activity) | M. luteus; also recorded: C. albicans; also recorded: C. jeikeium; also recorded: C. jejuni |
| PF-210 (EREDGCDAMPLP; Peptide with targeting and/or antimicrobial activity) | S. epidermidis and P. aeruginosa and C. albicans and MRSA and E. faecalis and C. jeikeium and C. jejuni |
| PF-219 (FLALAVIAGLFKVILIYAAPYLK; Peptide with targeting and/or antimicrobial activity) | S. epidermidis; also recorded: M. luteus; also recorded: P. aeruginosa; also recorded: A. baumannii |
| PF-104 (ERTAVNDLWI; Peptide with targeting and/or antimicrobial activity) | MRSA and C. jeikeium |
| PF-181 (GIAPRRNEWGAVGGR; Peptide with targeting and/or antimicrobial activity) | S. epidermidis and M. luteus and E. coli and MRSA and E. faecalis and C. jeikeium |

Same assay, conditions: microorganism(s) the targeting peptide binds; peptide binding conducted in aqueous buffers varied by peptide solubility, preferably 1x PBS

| Substance | Target(s) |
| --- | --- |
| PF-435 (MSRWDGHSDKGEAPAGKPPMHGFGLNGENK; Peptide with targeting and/or antimicrobial activity) | C. jeikeium |
| PF-508 (VSTFGKVVKVVDEK; Peptide with targeting and/or antimicrobial activity) | S. mutans |
| PF-491 (IHQYSSKPDIVGQEAKTVQQINS; Peptide with targeting and/or antimicrobial activity) | S. mutans; also recorded: E. coli |
| PF-502 (NKGKQMQDQTGKQPIVDNG; Peptide with targeting and/or antimicrobial activity) | S. mutans |
| PF-481 (DELYEIMDKVIEEFNKDIEQNNNNGNNEDLTENKIN; Peptide with targeting and/or antimicrobial activity) | C. jeikeium |
| PF-402 (FIDVLKSKINEFLN; Peptide with targeting and/or antimicrobial activity) | S. epidermidis; also recorded: P. aeruginosa; also recorded: E. faecalis; also recorded: C. jejuni |

Same assay, conditions: peptide binding in aqueous buffers varied by peptide solubility; preferably 1x PBS

| Substance | Target(s) (microorganisms bound by the targeting peptide) |
| --- | --- |
| PF-778 (MNLILTAHGT; Peptide with targeting and/or antimicrobial activity) | Mycobacteria spp. |
| PF-797 (WYYFDNNGYM; Peptide with targeting and/or antimicrobial activity) | S. mutans |
| PF-S018 (GMPQIPRLRI; Peptide with targeting and/or antimicrobial activity) | S. epidermidis and M. luteus and C. albicans and MRSA and E. faecalis and C. jeikeium and C. jejuni |
| PF-786 (LSERERRRLKRGII; Peptide with targeting and/or antimicrobial activity) | Mycobacteria spp. |
| PF-C080 (INIPGLF; Peptide with targeting and/or antimicrobial activity) | A. naeslundii; also recorded: F. nucleatum; also recorded: S. mutans |
| PF-676 (AEYRGL; Peptide with targeting and/or antimicrobial activity) | S. mutans; also recorded: E. coli |
| PF-784 (MAMTTVDNIVGLVIAVALMAFLFAALLFPEKF; Peptide with targeting and/or antimicrobial activity) | Mycobacteria spp. |
| PF-728 (AIGQEQDRREYYYYSGYPYYY; Peptide with targeting and/or antimicrobial activity) | S. mutans; also recorded: E. coli |
| PF-S007 (VVAGVVLLTALAVGSKRKEKKQIKEIQRLLAATR; Peptide with targeting and/or antimicrobial activity) | S. epidermidis and MRSA |
| PF-C003 (FCSVDHDVITIAADHVKQGAEA; Peptide with targeting and/or antimicrobial activity) | A. naeslundii; also recorded: P. gingivalis; also recorded: S. mutans |
| PF-724 (CYRFLTPKRPTRIS; Peptide with targeting and/or antimicrobial activity) | L. pneumophila |
